# Assay results: ChEMBL document CHEMBL1201862, “PubChem BioAssay data set” (2004)
# The source made the active and inactive calls.
# What was measured:
# [1] = molecular target: Protein Wnt-3a (Mus musculus, UniProt P27467); experiment: Wnt3a-driven reporter signaling inhibition, dose response, selectivity assay for Gli-SUFU antagonist project, Wnt-LIGHT cells, luminescence (AID 651570); type: functional; settings: read-out: IC50_Mean;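 further: Wnt-LIGHT reporter cells stimulated with conditioned medium from Wnt3a-producing cells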
# [2] = StAR promoter reporter inhibition counter-screen, dose response, counter-screen for LRH-1 inverse agonist project, cell-based, luminescence, luciferase reporter (AID 651969); type: functional
# [3] = molecular target: T1, Corticotropin-releasing factor receptor 2/Corticotropin-releasing factor-binding protein (Homo sapiens, UniProt P24387+Q13324); experiment: Dose Response confirmation of uHTS hits for small molecule antagonists of the CRF-binding protein and CRF-R2 receptor complex.; type: functional; settings: read-out: IC50_Mean
# T1 sequence (Q13324 whole entry): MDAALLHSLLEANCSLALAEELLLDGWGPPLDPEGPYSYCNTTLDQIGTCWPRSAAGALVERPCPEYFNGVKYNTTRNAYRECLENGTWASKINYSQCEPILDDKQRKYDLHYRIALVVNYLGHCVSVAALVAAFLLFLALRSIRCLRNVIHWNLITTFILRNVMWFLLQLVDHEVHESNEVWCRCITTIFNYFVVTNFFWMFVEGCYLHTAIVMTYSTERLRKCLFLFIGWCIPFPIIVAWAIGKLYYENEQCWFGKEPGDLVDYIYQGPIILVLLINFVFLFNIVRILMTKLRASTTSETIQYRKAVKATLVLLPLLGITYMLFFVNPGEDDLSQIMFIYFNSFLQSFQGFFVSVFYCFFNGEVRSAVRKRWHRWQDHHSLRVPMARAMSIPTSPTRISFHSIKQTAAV
# T1 sequence (P24387 whole entry): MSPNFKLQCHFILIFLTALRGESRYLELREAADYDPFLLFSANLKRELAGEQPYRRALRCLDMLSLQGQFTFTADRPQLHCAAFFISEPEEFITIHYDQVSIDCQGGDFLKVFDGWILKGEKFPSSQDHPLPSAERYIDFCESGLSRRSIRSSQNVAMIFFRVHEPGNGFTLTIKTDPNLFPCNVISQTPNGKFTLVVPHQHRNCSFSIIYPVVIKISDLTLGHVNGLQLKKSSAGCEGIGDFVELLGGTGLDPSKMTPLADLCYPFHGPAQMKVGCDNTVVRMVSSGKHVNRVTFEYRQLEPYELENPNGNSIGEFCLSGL
# [4] = CRF-BP/CRF-R2 complex antagonists, dose response, cell-based, uHTS hits, 384-well (AID 651639); type: functional, Homo sapiens; settings: read-out: IC50_Mean
# [5] = molecular target: T1, Corticotropin-releasing factor receptor 2/Corticotropin-releasing factor-binding protein; experiment: activators of CRF receptor 2 with binding protein – uHTS hits, confirmation (AID 602473); type: functional; settings: read-out: EC50_Mean
# [6] = molecular target: T2, Short transient receptor potential channel 4 (Mus musculus, UniProt Q9QUQ5); experiment: mouse TRPC4 channel inhibitors, dose response, cell-based, HEK293 TRPC4/mu-opioid, Fluo-4 calcium (AID 434942); type: functional;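 further: potency of inhibitors blocking the TRPC4 calcium response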
# T2 sequence (Q9QUQ5 whole entry): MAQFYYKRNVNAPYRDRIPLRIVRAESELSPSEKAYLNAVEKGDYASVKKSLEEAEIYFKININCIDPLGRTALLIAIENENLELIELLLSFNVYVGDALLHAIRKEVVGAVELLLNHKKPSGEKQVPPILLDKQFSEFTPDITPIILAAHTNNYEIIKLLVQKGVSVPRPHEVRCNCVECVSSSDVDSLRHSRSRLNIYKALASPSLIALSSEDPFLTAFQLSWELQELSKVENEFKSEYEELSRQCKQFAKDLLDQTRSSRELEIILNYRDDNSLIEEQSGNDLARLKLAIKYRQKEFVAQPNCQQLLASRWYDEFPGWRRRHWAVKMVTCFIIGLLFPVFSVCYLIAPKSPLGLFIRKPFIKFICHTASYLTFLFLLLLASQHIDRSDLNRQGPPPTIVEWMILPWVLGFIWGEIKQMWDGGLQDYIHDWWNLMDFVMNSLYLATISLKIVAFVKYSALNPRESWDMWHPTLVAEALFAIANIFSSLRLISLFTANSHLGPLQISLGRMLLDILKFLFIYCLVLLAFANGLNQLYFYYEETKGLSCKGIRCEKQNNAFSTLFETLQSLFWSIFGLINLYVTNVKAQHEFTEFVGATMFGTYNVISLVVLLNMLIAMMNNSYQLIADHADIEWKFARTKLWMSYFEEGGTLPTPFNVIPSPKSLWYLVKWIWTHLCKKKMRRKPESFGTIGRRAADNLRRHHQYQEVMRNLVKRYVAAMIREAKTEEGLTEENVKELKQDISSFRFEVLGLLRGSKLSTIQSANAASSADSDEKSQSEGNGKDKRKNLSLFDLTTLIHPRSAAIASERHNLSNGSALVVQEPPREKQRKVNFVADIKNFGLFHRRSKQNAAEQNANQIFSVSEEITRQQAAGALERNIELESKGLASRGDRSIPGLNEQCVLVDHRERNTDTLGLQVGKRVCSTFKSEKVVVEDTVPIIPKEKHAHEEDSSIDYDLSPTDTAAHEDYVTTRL
# [7] = molecular target: T3, Microphthalmia-associated transcription factor (Homo sapiens, UniProt O75030); experiment: TRPM1 promoter luciferase signal decrease, dose response, MITF inhibitor project, cell-based, SK-MEL-5, cherry-picked, set 3 (AID 493073); type: functional
# T3 sequence (O75030 whole entry): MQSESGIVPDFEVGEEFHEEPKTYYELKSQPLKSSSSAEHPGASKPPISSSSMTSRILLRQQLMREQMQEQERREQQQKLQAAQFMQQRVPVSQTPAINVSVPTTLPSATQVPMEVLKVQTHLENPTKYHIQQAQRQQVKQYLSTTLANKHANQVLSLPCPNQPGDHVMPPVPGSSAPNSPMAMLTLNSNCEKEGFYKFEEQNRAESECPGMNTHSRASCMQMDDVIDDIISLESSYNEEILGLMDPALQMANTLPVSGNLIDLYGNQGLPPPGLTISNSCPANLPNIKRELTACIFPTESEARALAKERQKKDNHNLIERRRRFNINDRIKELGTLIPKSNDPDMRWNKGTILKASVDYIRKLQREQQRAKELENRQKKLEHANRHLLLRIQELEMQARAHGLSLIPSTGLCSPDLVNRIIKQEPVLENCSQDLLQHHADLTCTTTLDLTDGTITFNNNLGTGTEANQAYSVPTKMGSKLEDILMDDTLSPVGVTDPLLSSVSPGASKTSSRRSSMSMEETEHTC
# [8] = NIH-3T3 fibroblast cytotoxicity, dose response, cytotoxicity control, cell-based, fluorescence, Alamar Blue, secondary assay (AID 2327); type: functional;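 further: NIH-3T3 mouse fibroblasts cultured with fluconazole at 8 µg/mL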
# [9] = molecular target: T4, DNA repair protein RAD52 homolog (Homo sapiens, UniProt P43351); type: functional, biochemical
# T4 sequence (P43351 whole entry): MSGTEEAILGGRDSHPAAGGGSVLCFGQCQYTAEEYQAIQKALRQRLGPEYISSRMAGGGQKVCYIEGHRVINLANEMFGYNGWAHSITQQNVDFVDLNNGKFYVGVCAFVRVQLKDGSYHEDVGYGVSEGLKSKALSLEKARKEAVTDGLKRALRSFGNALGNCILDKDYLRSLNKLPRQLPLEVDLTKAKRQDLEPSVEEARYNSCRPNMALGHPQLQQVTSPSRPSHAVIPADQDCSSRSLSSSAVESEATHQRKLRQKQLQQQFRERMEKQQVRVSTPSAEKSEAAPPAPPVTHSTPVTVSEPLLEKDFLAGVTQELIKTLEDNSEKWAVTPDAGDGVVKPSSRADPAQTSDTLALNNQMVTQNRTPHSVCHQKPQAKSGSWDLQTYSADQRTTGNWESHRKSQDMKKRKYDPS
# [10] = test system: INS1; experiment: beta cell apoptosis inhibitors, cytokine rescue, dose response, luminescence, retest (AID 449756); type: functional, cell-based; settings: Rattus norvegicus;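 further: cell death triggered by IL-1 beta plus TNF-alpha plus IFN-gamma mixture; protective hits raise ATP signal compared with cytokine alone wells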
# [11] = C. albicans growth with fluconazole, confirmation, fluorescence, retest (AID 2467); type: functional, cell-based
# [12] = molecular target: Photoreceptor-specific nuclear receptor (Homo sapiens, UniProt Q9Y5X4); type: functional, cell-based;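 further: CHO-S cells with Gal4-NCOR and VP16-NR2E3 two-hybrid luciferase reporter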
# [13] = molecular target: T5, Low molecular weight phosphotyrosine protein phosphatase (Homo sapiens, UniProt P24666); type: functional; settings: read-out: IC50_Mean
# T5 sequence (P24666 whole entry): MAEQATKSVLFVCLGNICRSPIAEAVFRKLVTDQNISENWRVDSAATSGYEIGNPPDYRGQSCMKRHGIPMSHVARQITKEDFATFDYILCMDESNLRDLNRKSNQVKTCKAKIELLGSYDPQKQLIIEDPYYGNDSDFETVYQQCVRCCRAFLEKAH
# [14] = molecular target: T6, SUMO-activating enzyme (Homo sapiens, UniProt Q9UBT2); experiment: inhibitors of in vitro SUMOylation cascade, primary screen, biochemical, HTRF, uHTS (AID 2006); type: protein-complex assay
# [15] = molecular target: T7, Tyrosine-protein phosphatase non-receptor type 22 (Homo sapiens, UniProt Q9Y2R2); experiment: LYP phosphatase inhibition for selectivity, dose response, selectivity assay for LMPTP inhibitor project, biochemical, fluorescence, LYP catalytic domain (AID 652006); type: functional; settings: read-out: IC50_Mean
# T7 sequence (Q9Y2R2 whole entry): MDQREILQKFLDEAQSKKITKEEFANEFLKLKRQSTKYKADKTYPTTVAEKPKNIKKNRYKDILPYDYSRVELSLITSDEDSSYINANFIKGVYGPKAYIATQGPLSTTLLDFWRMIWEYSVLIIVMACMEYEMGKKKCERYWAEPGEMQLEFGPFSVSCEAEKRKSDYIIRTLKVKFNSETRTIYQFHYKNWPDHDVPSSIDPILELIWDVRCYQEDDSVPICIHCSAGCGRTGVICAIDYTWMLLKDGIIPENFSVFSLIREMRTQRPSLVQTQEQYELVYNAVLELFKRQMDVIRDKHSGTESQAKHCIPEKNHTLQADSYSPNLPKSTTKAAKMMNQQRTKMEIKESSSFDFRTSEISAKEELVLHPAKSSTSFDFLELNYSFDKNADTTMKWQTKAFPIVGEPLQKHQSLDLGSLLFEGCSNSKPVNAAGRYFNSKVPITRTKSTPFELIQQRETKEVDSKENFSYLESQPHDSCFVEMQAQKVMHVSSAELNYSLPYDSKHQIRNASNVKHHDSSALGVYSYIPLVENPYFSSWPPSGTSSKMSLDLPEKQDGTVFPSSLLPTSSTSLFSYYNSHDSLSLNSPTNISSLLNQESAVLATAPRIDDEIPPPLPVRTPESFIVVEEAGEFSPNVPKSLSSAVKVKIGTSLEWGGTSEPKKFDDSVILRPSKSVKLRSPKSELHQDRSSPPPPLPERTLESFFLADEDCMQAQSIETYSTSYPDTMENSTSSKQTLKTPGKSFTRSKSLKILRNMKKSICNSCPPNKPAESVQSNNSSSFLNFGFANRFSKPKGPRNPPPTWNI
# [16] = growth suppression of PTEN-null colon cells, dose response, cell-based, HCT116 PTEN knockout (AID 1047); type: functional;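 further: HCT116 colon tumor cells with PTEN knocked out; cells exposed to compound for 60 hours before readout; potency for loss of cell viability measured by luminescence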
# [17] = molecular target: Peroxisome proliferator-activated receptor gamma/Nuclear receptor coactivator 2 (Homo sapiens, UniProt P37231); type: functional;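 further: agonist potency for raising coactivator recruitment to the receptor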
# [18] = molecular target: T6, SUMO-activating enzyme; experiment: SUMOylation inhibitor hit validation, confirmation, SUMOylation inhibitor project, biochemical, AlphaScreen (AID 2018); type: functional
# [19] = molecular target: Peroxisome proliferator-activated receptor gamma/Nuclear receptor coactivator 3 (Homo sapiens, UniProt P37231); type: functional;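 further: agonist potency for raising coactivator recruitment to the receptor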
# [20] = molecular target: T8, Carboxy-terminal domain RNA polymerase II polypeptide A small phosphatase 1 (Homo sapiens, UniProt Q9GZU7); experiment: inhibitors of CTDSP1, concentration-response testing, biochemical assay, absorbance-based, actives from ultra-high-throughput screening (AID 540297); type: functional
# T8 sequence (Q9GZU7 whole entry): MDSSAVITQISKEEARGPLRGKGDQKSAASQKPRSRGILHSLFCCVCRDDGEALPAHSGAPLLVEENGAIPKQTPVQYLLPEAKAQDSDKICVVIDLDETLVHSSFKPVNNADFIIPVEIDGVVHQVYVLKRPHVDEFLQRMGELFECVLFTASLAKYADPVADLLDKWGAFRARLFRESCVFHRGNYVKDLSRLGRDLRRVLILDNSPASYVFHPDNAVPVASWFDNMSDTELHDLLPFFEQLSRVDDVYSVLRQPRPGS
# [21] = molecular target: Peroxisome proliferator-activated receptor gamma/Nuclear receptor coactivator 1 (Homo sapiens, UniProt P37231); type: functional;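 further: agonist potency as compounds enhance coactivator SRC-1 recruitment to PPARgamma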
# [22] = molecular target: T5, Low molecular weight phosphotyrosine protein phosphatase; type: functional; settings: read-out: IC50_Mean; remark: listed apart in the source
# [23] = growth suppression of beta-catenin-knockout colon cells, dose response, cell-based, HCT116, human colon tumor (AID 1045); type: functional;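 further: HCT116 colon tumor cells with beta catenin knocked out; cells exposed to compound for 60 hours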
# Protein Wnt-3a, sequence (P27467 whole entry): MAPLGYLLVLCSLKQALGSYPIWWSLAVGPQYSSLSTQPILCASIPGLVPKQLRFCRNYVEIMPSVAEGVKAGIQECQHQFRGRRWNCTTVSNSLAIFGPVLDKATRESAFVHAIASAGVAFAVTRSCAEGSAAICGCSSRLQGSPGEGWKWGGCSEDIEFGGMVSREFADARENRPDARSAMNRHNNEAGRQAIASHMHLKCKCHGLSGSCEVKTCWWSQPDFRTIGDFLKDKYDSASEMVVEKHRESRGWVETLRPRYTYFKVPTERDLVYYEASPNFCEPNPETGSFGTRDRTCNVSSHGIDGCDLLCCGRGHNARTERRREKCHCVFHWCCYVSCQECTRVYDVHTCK
# Photoreceptor-specific nuclear receptor, sequence (Q9Y5X4 whole entry, the tested form may be a part): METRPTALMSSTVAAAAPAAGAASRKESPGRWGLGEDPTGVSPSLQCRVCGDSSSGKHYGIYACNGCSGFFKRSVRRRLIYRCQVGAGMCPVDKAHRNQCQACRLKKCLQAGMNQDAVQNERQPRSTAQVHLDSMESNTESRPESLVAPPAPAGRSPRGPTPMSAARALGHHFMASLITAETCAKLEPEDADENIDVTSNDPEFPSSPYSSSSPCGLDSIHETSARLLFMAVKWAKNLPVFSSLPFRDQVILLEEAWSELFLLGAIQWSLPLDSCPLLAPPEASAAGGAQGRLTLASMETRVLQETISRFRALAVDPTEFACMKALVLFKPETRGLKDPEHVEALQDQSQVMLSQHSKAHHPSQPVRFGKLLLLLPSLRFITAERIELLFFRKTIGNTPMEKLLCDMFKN
# T6 sequence (Q9UBE0 whole entry, the tested form may be a part): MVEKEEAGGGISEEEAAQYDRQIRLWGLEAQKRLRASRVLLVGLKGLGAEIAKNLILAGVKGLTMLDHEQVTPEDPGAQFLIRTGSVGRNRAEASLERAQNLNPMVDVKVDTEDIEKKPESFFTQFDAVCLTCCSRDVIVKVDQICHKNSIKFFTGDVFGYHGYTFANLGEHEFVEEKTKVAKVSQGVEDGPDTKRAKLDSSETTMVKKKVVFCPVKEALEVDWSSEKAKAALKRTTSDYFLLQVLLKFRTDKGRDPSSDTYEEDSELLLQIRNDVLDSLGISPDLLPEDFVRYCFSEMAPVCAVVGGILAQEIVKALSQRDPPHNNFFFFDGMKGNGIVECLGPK
# T6 sequence (Q9UBT2 whole entry, the tested form may be a part): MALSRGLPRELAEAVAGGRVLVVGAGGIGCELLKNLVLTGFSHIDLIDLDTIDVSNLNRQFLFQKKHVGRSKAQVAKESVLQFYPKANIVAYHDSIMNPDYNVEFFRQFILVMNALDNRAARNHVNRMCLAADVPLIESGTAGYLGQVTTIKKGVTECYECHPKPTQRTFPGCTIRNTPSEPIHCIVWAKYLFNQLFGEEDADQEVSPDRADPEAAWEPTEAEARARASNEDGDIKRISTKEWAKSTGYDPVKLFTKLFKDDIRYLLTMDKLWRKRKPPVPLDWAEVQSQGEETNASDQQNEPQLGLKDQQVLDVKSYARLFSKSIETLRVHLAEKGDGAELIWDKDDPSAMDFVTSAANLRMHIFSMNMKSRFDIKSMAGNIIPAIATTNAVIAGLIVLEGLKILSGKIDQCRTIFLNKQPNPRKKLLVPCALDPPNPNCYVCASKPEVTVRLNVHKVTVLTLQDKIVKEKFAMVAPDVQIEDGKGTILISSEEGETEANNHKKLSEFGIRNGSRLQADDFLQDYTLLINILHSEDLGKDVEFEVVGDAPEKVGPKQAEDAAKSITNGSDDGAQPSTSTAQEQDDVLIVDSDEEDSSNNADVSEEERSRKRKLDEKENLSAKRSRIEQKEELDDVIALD
# Peroxisome proliferator-activated receptor gamma/Nuclear receptor coactivator 1, sequence (P37231 whole entry): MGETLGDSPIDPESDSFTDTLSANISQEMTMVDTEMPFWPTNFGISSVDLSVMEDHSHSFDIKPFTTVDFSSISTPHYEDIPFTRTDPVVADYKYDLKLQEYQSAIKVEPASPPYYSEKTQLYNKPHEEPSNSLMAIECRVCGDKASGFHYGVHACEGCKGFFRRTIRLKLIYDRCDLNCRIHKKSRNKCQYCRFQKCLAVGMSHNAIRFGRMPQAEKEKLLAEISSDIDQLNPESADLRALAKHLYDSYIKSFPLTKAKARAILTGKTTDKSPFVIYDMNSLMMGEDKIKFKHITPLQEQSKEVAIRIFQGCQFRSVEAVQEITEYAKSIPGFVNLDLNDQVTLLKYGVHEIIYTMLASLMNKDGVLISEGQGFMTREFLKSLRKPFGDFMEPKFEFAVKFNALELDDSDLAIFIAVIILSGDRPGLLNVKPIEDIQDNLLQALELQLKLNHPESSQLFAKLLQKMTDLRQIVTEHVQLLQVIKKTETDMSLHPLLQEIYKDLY
# Peroxisome proliferator-activated receptor gamma/Nuclear receptor coactivator 1, sequence (Q15788 whole entry, further chain): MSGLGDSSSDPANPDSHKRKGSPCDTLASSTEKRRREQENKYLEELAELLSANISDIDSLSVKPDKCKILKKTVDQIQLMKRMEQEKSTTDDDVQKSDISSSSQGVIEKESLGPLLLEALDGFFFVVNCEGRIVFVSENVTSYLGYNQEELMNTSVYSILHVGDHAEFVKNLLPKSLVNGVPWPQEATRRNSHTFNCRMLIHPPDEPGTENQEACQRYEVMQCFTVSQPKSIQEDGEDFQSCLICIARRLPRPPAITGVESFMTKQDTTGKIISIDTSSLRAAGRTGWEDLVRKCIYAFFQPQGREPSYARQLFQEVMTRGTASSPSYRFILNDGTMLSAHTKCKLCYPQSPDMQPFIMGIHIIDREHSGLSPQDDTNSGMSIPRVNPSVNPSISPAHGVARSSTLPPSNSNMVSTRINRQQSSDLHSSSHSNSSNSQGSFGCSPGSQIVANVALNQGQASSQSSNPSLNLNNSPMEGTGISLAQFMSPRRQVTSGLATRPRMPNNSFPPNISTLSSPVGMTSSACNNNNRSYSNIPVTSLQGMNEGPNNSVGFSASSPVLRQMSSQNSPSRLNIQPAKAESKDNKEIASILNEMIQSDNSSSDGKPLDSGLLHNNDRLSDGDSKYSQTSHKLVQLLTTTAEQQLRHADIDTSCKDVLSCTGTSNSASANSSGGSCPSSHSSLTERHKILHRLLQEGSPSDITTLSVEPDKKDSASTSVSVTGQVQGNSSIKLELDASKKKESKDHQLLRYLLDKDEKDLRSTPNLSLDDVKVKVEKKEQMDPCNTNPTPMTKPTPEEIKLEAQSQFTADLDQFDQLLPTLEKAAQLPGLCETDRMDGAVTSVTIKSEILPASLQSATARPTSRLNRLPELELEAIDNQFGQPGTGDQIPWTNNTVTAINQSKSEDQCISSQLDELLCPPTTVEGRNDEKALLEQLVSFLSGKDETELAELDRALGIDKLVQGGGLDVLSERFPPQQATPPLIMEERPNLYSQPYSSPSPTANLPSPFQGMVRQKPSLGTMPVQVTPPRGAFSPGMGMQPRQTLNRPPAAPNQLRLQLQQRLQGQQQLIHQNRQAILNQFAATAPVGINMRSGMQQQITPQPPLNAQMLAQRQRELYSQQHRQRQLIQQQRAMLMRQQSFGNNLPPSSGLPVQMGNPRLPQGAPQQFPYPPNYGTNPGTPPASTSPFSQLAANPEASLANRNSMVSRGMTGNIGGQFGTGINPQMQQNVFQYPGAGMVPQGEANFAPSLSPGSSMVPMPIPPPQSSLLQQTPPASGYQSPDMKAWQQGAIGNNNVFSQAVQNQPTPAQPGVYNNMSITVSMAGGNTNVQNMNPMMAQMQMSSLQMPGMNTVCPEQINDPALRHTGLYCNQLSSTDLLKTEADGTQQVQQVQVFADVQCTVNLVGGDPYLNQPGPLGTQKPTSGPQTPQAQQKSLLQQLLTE
structure (smiles),measurement,setting,value
Cc1nnsc1C(=O)NC1CCCc2c1cnn2-c1ccc(F)cc1F (centres undefined),IC50,[1],3.91 µM (active)
Cc1cccc(NC(=O)CSc2nc(O)c3c[nH]nc3n2)c1C,IC50,[2],35.9 µM (inactive)
Cc1ccc(C(C)(C)C)cc1S(=O)(=O)Nc1nc2ccccc2nc1Cl,IC50,[3],6.04 µM (active)
same,IC50,[4],12.9 µM (active)
same,EC50,[5],31.4 µM (active)
same,EC50,[6],6.68 µM (active)
C(#Cc1ccccc1)C[N+]1(CC#Cc2cccc3ccccc23)CCCC1,AC50,[7],6.21 µM (active)
same,EC50,[8],> 150 µM (inconclusive)
same,IC50,[1],5.07 µM (active)
same,AC50,[9],15.2 µM (active)
same,AC50,[10],6.44 µM (active)
same,EC50,[11],> 38 µM (not active)
CCCCOc1ccc(CONS(=O)(=O)c2ccc(NC(C)=O)cc2)cc1Cl,IC50,[12],4.47 µM (active)
CCCCCCCCn1c(=O)c(C(=O)OC)c(N)c2ccccc21,IC50,[12],6.4 µM (active)
same,AC50,[10],5.55 µM (active)
CCOc1ccc(/N=c2\scc(-c3ccc(OC)cc3)n2CCO)cc1,IC50,[3],3.31 µM (active)
same,IC50,[4],> 20 µM (inactive)
same,EC50,[5],> 53 µM (inactive)
CCOC(=O)Cn1/c(=N/C(=O)c2sc3ccccc3c2Cl)sc2cc(S(N)(=O)=O)ccc21,IC50,[13],16.4 µM (active)
same,IC50,[14],4.97 µM (active)
same,IC50,[15],52.2 µM (inactive)
same,EC50,[16],72.5 µM (active)
same,EC50,[17],7.96 µM (active)
same,IC50,[18],11.8 µM (active)
same,EC50,[19],14.3 µM (not active)
same,IC50,[20],2.06 µM (active)
same,EC50,[21],11.3 µM (not active)
same,IC50,[22],27.7 µM (inactive)
same,EC50,[23],46.4 µM (active)
